In ChEMBL document CHEMBL3351680, “Structure-based design, synthesis and biological evaluation of novel β-secretase inhibitors containing a pyrazole or thiazole moiety as the P3 ligand” (Bioorg Med Chem Lett, 2015):

How the values were obtained:
Beta-secretase 2 = target: T1, Beta-secretase 2 (Homo sapiens, UniProt Q9Y5Z0); assay: Inhibition of memapsin 1 (unknown origin)
T1 sequence (Q9Y5Z0 whole entry): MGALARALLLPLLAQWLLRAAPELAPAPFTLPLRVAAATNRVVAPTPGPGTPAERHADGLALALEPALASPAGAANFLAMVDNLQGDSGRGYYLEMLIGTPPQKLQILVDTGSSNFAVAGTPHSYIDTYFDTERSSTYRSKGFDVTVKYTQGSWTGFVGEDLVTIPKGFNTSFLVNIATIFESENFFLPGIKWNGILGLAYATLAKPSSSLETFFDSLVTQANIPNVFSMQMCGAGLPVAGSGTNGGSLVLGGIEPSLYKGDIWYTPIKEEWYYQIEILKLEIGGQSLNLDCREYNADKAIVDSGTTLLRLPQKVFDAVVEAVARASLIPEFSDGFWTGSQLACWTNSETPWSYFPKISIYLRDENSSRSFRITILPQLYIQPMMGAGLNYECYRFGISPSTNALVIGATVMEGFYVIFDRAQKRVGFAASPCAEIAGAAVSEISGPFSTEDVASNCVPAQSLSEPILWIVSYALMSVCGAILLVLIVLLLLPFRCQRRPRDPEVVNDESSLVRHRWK

Cathepsin D = Cathepsin D (Homo sapiens, UniProt P07339); assay: Inhibition of Cathepsin D (unknown origin)
Beta-secretase 1 = Beta-secretase 1 (Homo sapiens, UniProt P56817); assay: Inhibition of recombinant BACE1 (unknown origin)
Sequence of Beta-secretase 1 (P56817 whole entry): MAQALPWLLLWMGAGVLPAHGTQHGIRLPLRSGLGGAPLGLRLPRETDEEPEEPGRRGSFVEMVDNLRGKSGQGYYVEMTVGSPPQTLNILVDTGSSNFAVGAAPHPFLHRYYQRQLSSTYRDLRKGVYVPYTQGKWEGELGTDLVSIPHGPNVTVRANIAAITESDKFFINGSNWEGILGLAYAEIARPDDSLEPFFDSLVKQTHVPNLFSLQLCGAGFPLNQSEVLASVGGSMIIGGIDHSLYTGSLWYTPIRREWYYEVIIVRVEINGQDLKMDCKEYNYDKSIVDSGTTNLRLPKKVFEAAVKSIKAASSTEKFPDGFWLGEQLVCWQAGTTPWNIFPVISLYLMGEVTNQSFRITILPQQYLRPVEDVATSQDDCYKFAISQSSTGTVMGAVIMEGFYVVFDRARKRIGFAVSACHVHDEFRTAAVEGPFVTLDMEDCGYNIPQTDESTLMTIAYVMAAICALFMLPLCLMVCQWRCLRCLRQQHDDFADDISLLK

Sequence of Cathepsin D (P07339 65-162 limits assumed): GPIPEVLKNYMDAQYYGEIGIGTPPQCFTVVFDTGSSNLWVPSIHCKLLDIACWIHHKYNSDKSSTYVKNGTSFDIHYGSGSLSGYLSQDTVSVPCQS
Sequence of Cathepsin D (P07339 169-412 limits assumed): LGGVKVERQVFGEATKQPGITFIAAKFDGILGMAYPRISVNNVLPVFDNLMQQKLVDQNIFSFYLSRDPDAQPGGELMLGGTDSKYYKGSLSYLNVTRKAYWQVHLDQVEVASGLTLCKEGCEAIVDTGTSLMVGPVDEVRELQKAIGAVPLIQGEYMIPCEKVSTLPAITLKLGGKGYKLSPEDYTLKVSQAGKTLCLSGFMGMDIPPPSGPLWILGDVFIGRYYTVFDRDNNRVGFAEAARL

Row | SMILES | Ki (Beta-secretase 2) [µM] | Ki (Cathepsin D) [µM] | Ki (Beta-secretase 1) [µM]
1 | Cc1csc(C[C@H](C)C(=O)N[C@@H](CNC(=O)OC(C)(C)C)C(=O)N[C@@H](CC(C)C)[C@@H](O)C[C@@H](C)C(=O)N[C@H](C(=O)NCC(C)C)C(C)C)n1 | 0.071 | 0.00125 | 0.00025
2 | CC[C@@H](Cn1nc(C)cc1C)C(=O)N[C@@H](CNC(=O)OC(C)(C)C)C(=O)N[C@@H](CC(C)C)[C@@H](O)C[C@@H](C)C(=O)N[C@H](C(=O)NCC(C)C)C(C)C |  |  | 0.0631
3 | Cc1cc(C)n(C[C@@H](C(=O)N[C@@H](CNC(=O)OC(C)(C)C)C(=O)N[C@@H](CC(C)C)[C@@H](O)C[C@@H](C)C(=O)N[C@H](C(=O)NCC(C)C)C(C)C)C(C)C)n1 |  |  | 0.471
4 | Cc1cc(C)n(C[C@H](CC(C)C)C(=O)N[C@@H](CNC(=O)OC(C)(C)C)C(=O)N[C@@H](CC(C)C)[C@@H](O)C[C@@H](C)C(=O)N[C@H](C(=O)NCC(C)C)C(C)C)n1 |  |  | 0.148
5 | Cc1ccn(C[C@H](C)C(=O)N[C@@H](CNC(=O)OC(C)(C)C)C(=O)N[C@@H](CC(C)C)[C@@H](O)C[C@@H](C)C(=O)N[C@H](C(=O)NCC(C)C)C(C)C)n1 |  |  | 0.201
6 | CSC[C@H](NC(=O)[C@@H](C)Cn1nc(C)cc1C)C(=O)N[C@@H](CC(C)C)[C@@H](O)C[C@@H](C)C(=O)N[C@H](C(=O)NCC(C)C)C(C)C |  |  | 0.0642
7 | Cc1cc(C)n(C[C@H](C)C(=O)N[C@@H](CS(C)(=O)=O)C(=O)N[C@@H](CC(C)C)[C@@H](O)C[C@@H](C)C(=O)N[C@H](C(=O)NCC(C)C)C(C)C)n1 |  |  | 0.192
8 | Cc1nc(C[C@H](C)C(=O)N[C@@H](CNC(=O)OC(C)(C)C)C(=O)N[C@@H](CC(C)C)[C@@H](O)C[C@@H](C)C(=O)N[C@H](C(=O)NCC(C)C)C(C)C)cs1 |  |  | 0.0319
9 | CC[C@@H](Cc1csc(C)n1)C(=O)N[C@@H](CNC(=O)OC(C)(C)C)C(=O)N[C@@H](CC(C)C)[C@@H](O)C[C@@H](C)C(=O)N[C@H](C(=O)NCC(C)C)C(C)C |  |  | 0.0168
10 | CC[C@@H](Cc1nc(C)cs1)C(=O)N[C@@H](CNC(=O)OC(C)(C)C)C(=O)N[C@@H](CC(C)C)[C@@H](O)C[C@@H](C)C(=O)N[C@H](C(=O)NCC(C)C)C(C)C |  |  | 0.0108
11 | Cc1csc(C[C@@H](C(=O)N[C@@H](CNC(=O)OC(C)(C)C)C(=O)N[C@@H](CC(C)C)[C@@H](O)C[C@@H](C)C(=O)N[C@H](C(=O)NCC(C)C)C(C)C)C(C)C)n1 |  |  | 0.0289
